The source made the active and inactive calls.
Key:
[1] = molecular target: T1, Zinc finger protein mex-5 (Caenorhabditis elegans, UniProt Q9XUB2); assay: potency of MEX-5 RNA-binding blockers – biochemical, C. elegans, fluorescence polarization, dose response (AID 1960)
T1 sequence (Q9XUB2 whole entry): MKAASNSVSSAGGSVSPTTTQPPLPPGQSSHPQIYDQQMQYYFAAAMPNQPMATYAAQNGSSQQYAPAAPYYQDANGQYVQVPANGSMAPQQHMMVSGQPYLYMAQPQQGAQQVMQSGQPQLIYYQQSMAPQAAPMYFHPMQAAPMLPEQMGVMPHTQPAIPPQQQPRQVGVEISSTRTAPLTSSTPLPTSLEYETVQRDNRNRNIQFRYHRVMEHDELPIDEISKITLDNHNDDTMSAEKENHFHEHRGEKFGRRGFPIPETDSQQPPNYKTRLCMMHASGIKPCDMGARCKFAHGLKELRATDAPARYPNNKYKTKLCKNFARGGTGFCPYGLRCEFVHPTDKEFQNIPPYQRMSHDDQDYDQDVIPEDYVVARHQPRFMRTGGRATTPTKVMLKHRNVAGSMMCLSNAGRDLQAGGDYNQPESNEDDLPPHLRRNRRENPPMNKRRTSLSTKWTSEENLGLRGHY

[2] = molecular target: T2, RNA-binding protein pos-1 (Caenorhabditis elegans, UniProt G5EF15); assay: disruptors of C. elegans POS-1 RNA interaction – biochemical, fluorescence polarization, dose response (AID 1964);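 further: purified POS-1 fused to maltose binding protein made in E. coli; potency of compounds blocking POS-1 binding to fluorescent RNA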
T2 sequence (G5EF15 whole entry): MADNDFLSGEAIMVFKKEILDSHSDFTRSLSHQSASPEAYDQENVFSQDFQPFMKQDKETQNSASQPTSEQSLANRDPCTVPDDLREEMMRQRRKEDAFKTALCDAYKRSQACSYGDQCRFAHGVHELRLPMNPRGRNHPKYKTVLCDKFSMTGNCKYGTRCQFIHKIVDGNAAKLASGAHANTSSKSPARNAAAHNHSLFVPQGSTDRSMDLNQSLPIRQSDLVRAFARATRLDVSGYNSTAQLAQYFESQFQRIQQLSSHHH

[3] = molecular target: UDP-galactopyranose mutase (Mycobacterium tuberculosis, UniProt P9WIQ1); assay: Inhibitors of Mycobacterium tuberculosis UDP-galactopyranose mutase (UGM) enzyme Measured in Biochemical System Using Plate Reader - 2105-02_Inhibitor_Dose_CherryPick_Activity. [Related pubchem assays (depositor defined):AID504439]
[4] = molecular target: T3, Cytochrome P450 1A2 (Homo sapiens, UniProt P05177);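 further: PubChem cytochrome P450 panel assay, CYP1A2 panel member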
T3 sequence (P05177 whole entry): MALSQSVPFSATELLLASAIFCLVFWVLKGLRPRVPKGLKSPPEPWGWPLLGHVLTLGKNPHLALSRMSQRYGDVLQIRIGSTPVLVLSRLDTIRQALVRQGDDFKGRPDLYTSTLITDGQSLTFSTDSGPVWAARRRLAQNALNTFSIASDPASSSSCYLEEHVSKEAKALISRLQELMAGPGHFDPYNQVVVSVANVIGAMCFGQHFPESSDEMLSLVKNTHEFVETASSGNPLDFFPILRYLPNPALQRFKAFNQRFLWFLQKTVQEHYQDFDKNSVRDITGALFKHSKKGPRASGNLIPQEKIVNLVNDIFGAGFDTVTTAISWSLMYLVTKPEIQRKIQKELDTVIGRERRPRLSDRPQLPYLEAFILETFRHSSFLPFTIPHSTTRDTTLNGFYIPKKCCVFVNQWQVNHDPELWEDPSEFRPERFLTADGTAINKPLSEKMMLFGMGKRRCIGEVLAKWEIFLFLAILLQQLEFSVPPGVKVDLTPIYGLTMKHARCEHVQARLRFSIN

[5] = molecular target: Cytochrome P450 2C19 (Homo sapiens, UniProt P33261); assay: Cytochrome panel assay with activity outcomes. Panel member name: p450-cyp2c19 Compounds with AC50 equal or less than 10 uM are considered active; assay type: functional; details: read-out: AC50
[6] = molecular target: Cytochrome P450 2D6 (Homo sapiens, UniProt P10635);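 further: CYP2D6 member of a cytochrome P450 panel assay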
[7] = molecular target: Beta-galactosidase (Escherichia coli, UniProt Q8VNN2); assay: detection-enzyme interference by beta-gal modulators – biochemical, E. coli enzyme, set 3, artefact control for CCR6 antagonist project, dose response (AID 504712); assay type: functional
[8] = molecular target: Apelin receptor (Homo sapiens, UniProt P35414); assay: apelin receptor antagonists, arrestin read-out – cell-based, luminescent, enzyme-fragment complementation, selectivity assay for CCR6 antagonist project, SAR follow-up (AID 588359); assay type: functional
[9] = molecular target: Keap1/Nrf2 (Homo sapiens, UniProt Q14145); assay: disruptors of Keap1 binding to Nrf2 peptide – biochemical, fluorescence polarization, cherry-picked samples, dose response (AID 588683)
[10] = tested on: HEK293; assay: cells; details: Homo sapiens
[11] = alpha-synuclein stem-loop luciferase translation blockers – H4 neuroglioma cells, luminescence, confirmation (AID 1988); assay type: functional, cell-based
[12] = luciferase reporter signal suppression in cells – H4 neuroglioma cells, luminescence, dose response (AID 1990); assay type: functional, cell-based
[13] = tested on: Streptococcus; assay: GAS UMAA2166 growth inhibition – luminescence, BacTiterGlo, counter-screen for streptokinase expression inhibitor project, dose response (AID 1915); assay type: functional, organism-based;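 further: potency for reduction of bacterial viability or growth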
[14] = molecular target: T4, Streptokinase A (Streptococcus pyogenes serotype M1, UniProt P10520); assay: viability-normalized secreted streptokinase activity reduction – plasminogen activation absorbance, OD405, dose response (AID 1914); assay type: functional, Streptococcus pyogenes M1 GAS;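 further: secreted streptokinase activity via plasminogen activation per viability signal from cell pellet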
T4 sequence (P10520 whole entry): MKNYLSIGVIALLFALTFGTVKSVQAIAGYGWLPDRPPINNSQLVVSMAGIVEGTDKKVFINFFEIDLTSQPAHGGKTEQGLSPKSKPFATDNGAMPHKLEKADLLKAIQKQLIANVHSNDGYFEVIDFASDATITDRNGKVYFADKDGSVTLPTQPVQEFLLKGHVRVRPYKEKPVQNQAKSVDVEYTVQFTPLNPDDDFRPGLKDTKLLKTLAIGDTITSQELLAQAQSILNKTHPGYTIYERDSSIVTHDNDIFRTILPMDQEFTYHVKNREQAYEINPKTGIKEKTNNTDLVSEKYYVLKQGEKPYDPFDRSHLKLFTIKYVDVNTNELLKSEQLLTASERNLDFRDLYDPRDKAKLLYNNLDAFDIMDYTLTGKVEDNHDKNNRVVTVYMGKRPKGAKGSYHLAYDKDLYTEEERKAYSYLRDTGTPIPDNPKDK

[15] = molecular target: C-C chemokine receptor type 6 (Homo sapiens, UniProt P51684); assay: antagonism of CCR6 beta-arrestin recruitment – cell-based, luminescent beta-arrestin readout, dose response (AID 504728); assay type: functional
[16] = tested on: Streptococcus sp. 'group A'; assay: Streptococcus pyogenes SK(-)GAS viability under kanamycin – luminescence, BacTiterGlo, confirmation, counter-screen for streptokinase expression inhibitor project, dose response (AID 1900); assay type: functional, organism-based
[17] = tested on: HEK293; assay: cells; details: Homo sapiens; remark: listed apart in the source
[18] = tested on: INS1; assay: INS-1E survival protection against cytokine death – cell-based, luminescence, retest, dose response (AID 449756); assay type: functional; details: Rattus norvegicus;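 further: cell death triggered by IL-1 beta plus TNF-alpha plus IFN-gamma mixture; protective hits raise ATP signal compared with cytokine alone wells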
[19] = Luminescence Cell-Based Dose Response HTS to Identify Inhibitors of 5'UTR Stem-Loop Driven Prion Protein mRNA Translation in H4 Neuroglioblastoma Cells. [Related pubchem assays: 1827 (Project Summary), 1813 (Primary HTS)]; assay type: functional
[20] = microbe, parasite or virus in culture; assay type: functional; details: Mycobacterium tuberculosis

Sequence of Beta-galactosidase (Q8VNN2 whole entry, the tested form may be a part): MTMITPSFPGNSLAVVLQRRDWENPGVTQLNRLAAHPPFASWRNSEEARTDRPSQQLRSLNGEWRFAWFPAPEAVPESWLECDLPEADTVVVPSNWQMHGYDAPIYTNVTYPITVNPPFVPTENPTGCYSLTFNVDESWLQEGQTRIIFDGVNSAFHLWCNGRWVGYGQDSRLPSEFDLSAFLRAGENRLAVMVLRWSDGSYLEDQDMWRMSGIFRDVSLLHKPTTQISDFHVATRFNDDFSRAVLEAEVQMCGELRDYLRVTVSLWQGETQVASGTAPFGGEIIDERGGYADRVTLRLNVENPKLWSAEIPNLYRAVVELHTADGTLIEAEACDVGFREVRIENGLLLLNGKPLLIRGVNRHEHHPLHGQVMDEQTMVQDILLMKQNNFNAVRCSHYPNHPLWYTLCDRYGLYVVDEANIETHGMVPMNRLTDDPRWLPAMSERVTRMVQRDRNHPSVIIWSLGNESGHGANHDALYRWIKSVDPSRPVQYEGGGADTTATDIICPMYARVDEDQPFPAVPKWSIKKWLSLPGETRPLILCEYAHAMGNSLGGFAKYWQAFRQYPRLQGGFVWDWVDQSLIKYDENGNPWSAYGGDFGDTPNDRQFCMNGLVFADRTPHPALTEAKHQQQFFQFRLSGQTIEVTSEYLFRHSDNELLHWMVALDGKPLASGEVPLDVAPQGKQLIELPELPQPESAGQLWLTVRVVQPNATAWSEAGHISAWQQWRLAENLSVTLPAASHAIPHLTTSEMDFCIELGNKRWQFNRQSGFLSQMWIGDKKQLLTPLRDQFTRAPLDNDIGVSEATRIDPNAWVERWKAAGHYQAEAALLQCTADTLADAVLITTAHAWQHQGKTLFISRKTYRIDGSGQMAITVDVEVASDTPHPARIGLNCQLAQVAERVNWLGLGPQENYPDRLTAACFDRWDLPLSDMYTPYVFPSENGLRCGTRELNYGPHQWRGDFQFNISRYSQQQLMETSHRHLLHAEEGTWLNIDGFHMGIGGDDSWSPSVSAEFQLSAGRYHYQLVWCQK
Sequence of Cytochrome P450 2D6 (P10635 whole entry): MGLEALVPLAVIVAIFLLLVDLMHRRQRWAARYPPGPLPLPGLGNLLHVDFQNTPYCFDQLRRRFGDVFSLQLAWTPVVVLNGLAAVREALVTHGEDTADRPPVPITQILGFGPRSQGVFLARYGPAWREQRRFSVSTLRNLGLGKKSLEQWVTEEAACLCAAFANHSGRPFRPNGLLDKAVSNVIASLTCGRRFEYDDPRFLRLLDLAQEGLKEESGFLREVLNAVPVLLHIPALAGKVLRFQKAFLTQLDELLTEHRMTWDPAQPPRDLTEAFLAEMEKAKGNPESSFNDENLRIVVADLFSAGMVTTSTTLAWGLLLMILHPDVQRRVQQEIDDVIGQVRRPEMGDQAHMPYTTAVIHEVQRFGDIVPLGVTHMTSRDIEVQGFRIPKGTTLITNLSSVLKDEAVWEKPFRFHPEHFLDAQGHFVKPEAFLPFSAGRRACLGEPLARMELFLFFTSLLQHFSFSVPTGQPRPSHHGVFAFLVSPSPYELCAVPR
Sequence of Apelin receptor (P35414 whole entry, the tested form may be a part): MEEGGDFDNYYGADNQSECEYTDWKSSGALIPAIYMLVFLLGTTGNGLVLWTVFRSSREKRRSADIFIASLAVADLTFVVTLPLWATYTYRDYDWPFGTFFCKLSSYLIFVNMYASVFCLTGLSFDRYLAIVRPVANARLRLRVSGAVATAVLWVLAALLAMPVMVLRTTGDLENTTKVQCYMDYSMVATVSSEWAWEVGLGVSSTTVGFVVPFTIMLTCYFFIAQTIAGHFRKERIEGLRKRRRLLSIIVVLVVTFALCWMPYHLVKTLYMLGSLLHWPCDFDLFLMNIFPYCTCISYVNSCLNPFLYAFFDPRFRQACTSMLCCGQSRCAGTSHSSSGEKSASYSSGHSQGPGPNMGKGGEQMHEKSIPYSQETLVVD
Sequence of UDP-galactopyranose mutase (P9WIQ1 whole entry): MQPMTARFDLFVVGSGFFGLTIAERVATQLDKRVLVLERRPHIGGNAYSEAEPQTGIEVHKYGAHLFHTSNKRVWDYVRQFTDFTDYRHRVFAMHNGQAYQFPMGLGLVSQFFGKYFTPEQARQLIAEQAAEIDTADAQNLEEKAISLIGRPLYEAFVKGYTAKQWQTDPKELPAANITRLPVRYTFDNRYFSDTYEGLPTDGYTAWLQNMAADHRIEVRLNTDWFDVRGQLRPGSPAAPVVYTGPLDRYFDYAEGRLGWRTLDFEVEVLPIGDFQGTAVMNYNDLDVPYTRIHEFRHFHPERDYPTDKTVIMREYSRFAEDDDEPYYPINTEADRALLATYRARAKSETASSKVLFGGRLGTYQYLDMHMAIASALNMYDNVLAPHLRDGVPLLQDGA
Sequence of C-C chemokine receptor type 6 (P51684 whole entry): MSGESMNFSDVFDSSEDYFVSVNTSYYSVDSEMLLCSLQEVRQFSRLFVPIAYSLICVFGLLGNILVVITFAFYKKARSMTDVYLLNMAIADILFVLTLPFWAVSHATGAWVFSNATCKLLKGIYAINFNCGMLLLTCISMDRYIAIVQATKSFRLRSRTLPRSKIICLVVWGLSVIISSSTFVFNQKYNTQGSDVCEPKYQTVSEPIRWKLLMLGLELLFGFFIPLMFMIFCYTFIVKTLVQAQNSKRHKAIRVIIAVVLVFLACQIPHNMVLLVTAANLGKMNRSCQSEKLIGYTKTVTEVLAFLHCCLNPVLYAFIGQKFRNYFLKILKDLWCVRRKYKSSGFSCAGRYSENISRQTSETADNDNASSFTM
Sequence of Keap1/Nrf2 (Q16236 whole entry): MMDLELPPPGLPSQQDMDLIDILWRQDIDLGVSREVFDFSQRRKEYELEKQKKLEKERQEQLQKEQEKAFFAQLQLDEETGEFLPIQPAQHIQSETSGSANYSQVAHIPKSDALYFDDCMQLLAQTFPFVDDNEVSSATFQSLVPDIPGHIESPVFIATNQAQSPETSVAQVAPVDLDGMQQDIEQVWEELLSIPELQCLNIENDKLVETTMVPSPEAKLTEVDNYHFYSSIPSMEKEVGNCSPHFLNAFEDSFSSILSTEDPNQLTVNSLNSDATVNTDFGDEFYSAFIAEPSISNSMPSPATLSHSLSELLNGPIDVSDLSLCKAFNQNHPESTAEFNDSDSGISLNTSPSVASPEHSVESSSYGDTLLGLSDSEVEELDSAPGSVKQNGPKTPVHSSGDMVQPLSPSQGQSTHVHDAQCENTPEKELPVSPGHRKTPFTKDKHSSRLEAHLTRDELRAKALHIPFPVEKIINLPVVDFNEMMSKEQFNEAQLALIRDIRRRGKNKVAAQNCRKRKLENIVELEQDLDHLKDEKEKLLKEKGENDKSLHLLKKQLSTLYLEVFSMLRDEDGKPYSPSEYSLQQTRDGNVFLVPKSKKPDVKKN
Sequence of Keap1/Nrf2 (Q14145 whole entry): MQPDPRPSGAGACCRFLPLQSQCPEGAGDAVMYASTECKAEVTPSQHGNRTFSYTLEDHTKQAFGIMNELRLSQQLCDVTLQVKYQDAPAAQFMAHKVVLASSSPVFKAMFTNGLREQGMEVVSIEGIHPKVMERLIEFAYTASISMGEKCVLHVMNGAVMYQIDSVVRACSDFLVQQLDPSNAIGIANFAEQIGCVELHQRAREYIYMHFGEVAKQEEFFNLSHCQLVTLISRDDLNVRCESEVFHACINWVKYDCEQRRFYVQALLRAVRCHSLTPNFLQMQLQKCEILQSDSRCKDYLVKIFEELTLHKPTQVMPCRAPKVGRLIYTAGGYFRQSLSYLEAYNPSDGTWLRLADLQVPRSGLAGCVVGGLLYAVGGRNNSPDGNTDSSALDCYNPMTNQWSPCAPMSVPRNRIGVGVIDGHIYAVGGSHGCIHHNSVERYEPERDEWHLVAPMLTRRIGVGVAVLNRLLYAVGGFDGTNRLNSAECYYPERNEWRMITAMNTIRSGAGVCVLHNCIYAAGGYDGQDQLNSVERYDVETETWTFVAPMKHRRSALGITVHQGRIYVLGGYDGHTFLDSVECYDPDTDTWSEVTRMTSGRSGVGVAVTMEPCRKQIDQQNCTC
Sequence of Cytochrome P450 2C19 (P33261 whole entry): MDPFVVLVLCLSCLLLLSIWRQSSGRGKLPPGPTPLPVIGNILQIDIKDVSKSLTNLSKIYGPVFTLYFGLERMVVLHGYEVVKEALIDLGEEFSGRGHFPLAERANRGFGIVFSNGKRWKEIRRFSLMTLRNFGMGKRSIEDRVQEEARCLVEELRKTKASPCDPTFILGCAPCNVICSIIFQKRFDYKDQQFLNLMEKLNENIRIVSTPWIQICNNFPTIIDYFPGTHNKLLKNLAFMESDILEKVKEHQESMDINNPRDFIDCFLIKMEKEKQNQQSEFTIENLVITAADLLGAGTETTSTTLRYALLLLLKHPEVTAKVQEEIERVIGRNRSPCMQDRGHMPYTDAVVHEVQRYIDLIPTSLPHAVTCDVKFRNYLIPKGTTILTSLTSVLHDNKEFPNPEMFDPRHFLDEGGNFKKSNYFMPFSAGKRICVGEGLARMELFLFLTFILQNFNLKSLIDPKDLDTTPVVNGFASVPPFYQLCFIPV

## COC(=O)Cn1cc(C=C2C(=O)N(C)C(=O)N(C)C2=O)c2ccccc21
[1]
  EC50: 2.85 µM (inconclusive)
[2]
  EC50: 3.15 µM (inconclusive)
[3]
  AC50: 129 µM (active)

## COc1ccc(-c2oc3ccccc3c(=O)c2OC(=O)c2ccc(C)cc2)cc1
[4]
  AC50: 1.41 µM (inconclusive)
[5]
  AC50: 1 µM (inconclusive)
[6]
  AC50: inconclusive

## CCOC(=O)N1CCN(C(=O)C2CCN(C(=O)c3ccccc3C)CC2)CC1
[7]
  IC50: > 66.6 µM (inactive)
[8]
  IC50: > 66.6 µM (inactive)

## Cc1ccc(S(=O)(=O)Nc2cccc(S(=O)(=O)Nc3ccccc3C(=O)O)c2)c(C)c1
[9]
  AC50: > 52 µM (inactive)

## COc1cccc(/C=N/Nc2nc(Nc3ccccc3)nc(-n3nc(C)cc3C)n2)c1O
[7]
  IC50: > 66.6 µM (inactive)
[10]
  EC50: > 59.6 µM (inactive)
[11]
  EC50: 8.28 µM (active)
[12]
  EC50: 52.9 µM (active)
[13]
  EC50: 4.15 µM (active)
[14]
  EC50: > 150 µM (not active)
[15]
  IC50: > 66.6 µM (inactive)
[16]
  EC50: 1.7 µM (active)
[17]
  EC50: > 59.6 µM (inactive)
[18]
  AC50: 0.535 µM (active)
[19]
  EC50: 0.127 µM (active)
[20]
  CC50: 8.56 µM (active)
